{"source": "patent US20260256741A1", "about": "“ANTICANCER MALEIMIDE DERIVATIVES FOR USE WITH IMMUNE CHECKPOINT BLOCKADE” (BROWN UNIVERSITY, priority 2022, published 2026)", "format_in_all_cases": "cell-based, human", "key": {"[1]": {"test_system": "HT-29 GFP+ cells", "experiment": "Single-color GFP+ immune cell co-culture, HT-29", "settings": "48 hours", "method": "50,000 HT-29 or HCT 116 cells were seeded in a 12-well tissue culture plate and allowed to adhere overnight. They were then transduced with lentivirus containing the plasmid pLenti_CMV_GFP_Hygro [pLenti CMV GFP Hygro (656-4) was a gift from Eric Campeau & Paul Kaufman (Addgene viral prep #17446-LV; RRID: Addgene_17446)] at a multiplicity of infection of 10 with 8 μg/mL polybrene (hexadimethrine bromide [Cat #107689, Sigma Aldrich, St. Louis, MO, USA) for 24 hours before washing with PBS and replacing with fresh medium (49). The cells were then sorted for GFP-positivity using a BD FACSAria™ III Cell Sorter (RRID: SCR_016695).\n(§1) 5000 HT-29 GFP+ or HCT 116 GFP+ cells were plated per well in a clear-bottom, black-walled 96-well tissue culture plate and were allowed to adhere overnight. Cells were subsequently treated with DMSO, 5 μM elraglusib, and/or 5000 TALL-104 or NK-92 cells (for an effector-to-tumor ratio of 1:1) for 48 hours. Nine images were taken per well at 10× magnification using a Molecular Devices ImageXpress® Confocal HT.ai High-Content Imaging System and quantified for the number of GFP+ objects using the MetaXpress (RRID: SCR_016654) software (Molecular Devices, San Jose, CA, USA). 40× Images were also taken at 24 hours for representative images of cellular morphology changes. Statistical analysis was done using GraphPad Prism 9 (RRID: SCR_002798)."}, "[2]": {"test_system": "CRC (HCT-116, HT-29) and TALL-104 cells", "experiment": "Pyroptotic events in 40x co-culture images", "method": "as §1"}, "[3]": {"test_system": "HCT-116 cells", "experiment": "Microarray gene expression analysis, HCT-116", "method": "A total of 0.5×10^6 tumor cells (HCT-116, HT-29, KM12C) were plated in a 6-well plate and allowed to adhere overnight before 24-hour treatment as indicated. 1×10^6 immune cells (NK92, TALL-104) were plated and treated with elraglusib as indicated for 24 hours. RNA was isolated from cell pellets in batches of 6 using an RNeasy Plus Mini Kit (Cat #74134, Qiagen, Hilden, Germany). Acceptable RNA concentration and quality were verified with Nanodrop and Bioanalyzer measurements. GeneChip™ Human Transcriptome Array 2.0 assays were conducted according to manufacturer instructions in two batches using randomized samples to limit batch effects (Cat #902162, Applied Biosystems, Waltham, MA, USA). Applied Biosystems Transcriptomic Analysis Console (TAC) software (RRID: SCR_016519) was used to calculate fold changes in gene expression relative to the untreated control cells. Values were considered statistically significant for p values <0.05."}, "[4]": {"test_system": "tumor cells (HCT-116, HT-29)", "experiment": "Cytokine profiling of tumor cell culture supernatant (Luminex 200)", "settings": "48 hours", "method": "Cells were plated at 3.5×10^4 cells in a 48-well plate (Thermo Fisher Scientific, Waltham, MA, USA) in complete medium and incubated at 37° C. with 5% CO2. At 24 hours after plating, almost all the tumor cells were adherent to the bottom of the flask and the complete medium was replaced with the drug-containing medium. Subsequently, the culture supernatants were collected after 48 hours of incubation and were frozen at −80° C. until the measurement of cytokines was performed. On the day of analysis, samples were thawed and centrifuged to remove cellular debris.\nHuman cell line culture supernatants were analyzed using an R&D systems Human Premixed Multi-Analyte Kit (R&D Systems, Inc., Minneapolis, MN, USA) and a Luminex 200 (RRID: SCR_018025) Instrument (LX200-XPON-RUO, Luminex Corporation, Austin, TX, USA) according to the manufacturer's instructions. Sample levels of TNF-α, 4-1BB/TNFRSF9/CD137, IL-8/CXCL8, Ferritin, IFN-β, IL-10, CCL2/JE/MCP-1, VEGF, CXCL13/BLC/BCA-1, IFN-γ, CCL20/MIP-3 α, CCL3/MIP-1 α, CCL22/MDC, CCL4/MIP-1 β, Fas Ligand/TNFSF6, IL-17/IL-17A, IL-2, BAFF/BLyS/TNFSF13B, GM-CSF, CXCL5/ENA-78, TRANCE/TNFSF11/RANK L, CXCL9/MIG, G-CSF, IFN-γ R1/CD119, VEGFR3/Flt-4, C-Reactive Protein/CRP, CXCL11/I-TAC, IL-21, CXCL14/BRAK, IL-6, Fas/TNFRSF6/CD95, TRAIL R3/TNFRSF10C, IL-4, CCL5/RANTES, PD-L1/B7-H1, CCL7/MCP-3/MARC, Chitinase 3-like 1, CXCL10/IP-10/CRG-2, IL-1 β/IL-1F2, IL-7, Prolactin, CCL8/MCP-2, TRAIL R2/TNFRSF10B, M-CSF, IL-15, Granzyme B, IFN-α, TREM-1, IL-12/IL-23 p40, TRAIL/TNFSF10, CCL11/Eotaxin, and IL-18/IL-1F4. Quantitative analysis with 6 standards and a minimum of 50 counts per bead region was used with the Luminex to generate analyte values reported as picograms/milliliter (pg/mL). Sample concentrations less than the lower limit of detection for each particular analyte were recoded as the lower limit value divided by ten. Sample concentrations above the upper limit of detection for a particular analyte were recoded as the upper limit of detection."}, "[5]": {"test_system": "NK-92 cells", "experiment": "10x single-cell sequencing, NK-92", "settings": "1 μM, 24 hours vs DMSO", "method": "Single cells were captured and 3′ single-cell gene expression libraries were conducted (Next GEM v3.1) using the 10× Genomics Chromium system by SingulOmics (SingulOmics, New York, NY, USA). Gene expression libraries were sequenced with ~200 million PE150 reads per sample on Illumina (RRID: SCR_016387) NovaSeq (Illumina, Inc., San Diego, CA, USA). After sequencing clean reads were then analyzed with human reference genome GRCh38 using Cell Ranger v6.1.2 ([RRID: SCR_017344],10× Genomics, Pleasanton, CA, USA). Data were analyzed and visualized using Loupe Browser ([RRID: SCR_018555], 10× Genomics, Pleasanton, CA, USA)."}}, "data": [{"compound": "Cn1cc(C2=C(c3coc4ccc(F)cc34)C(=O)NC2=O)c2cc3c(cc21)OCO3", "note": "[elraglusib, 3-(5-fluorobenzofuran-3-yl)-4-(5-methyl-5H-[1,3]dioxolo[4,5-f]indol-7-yl)-1H-pyrrole-2,5-dione]", "values": [{"measurement": "tumor cell death", "setting": "[1]; 5 μM elraglusib and NK-92 vs immune cell only and DMSO only", "result": "increased tumor cell death"}, {"measurement": "tumor cell death", "setting": "[1]; 5 μM elraglusib and TALL-104 vs drug-only or T cell-only", "result": "increased tumor cell death"}, {"measurement": "pyroptotic events", "setting": "[2]; co-culture of CRC and TALL-104 cells with 5 μM elraglusib", "result": "significant increase in pyroptotic events"}, {"measurement": "pyroptotic events", "setting": "[2]; drug-only condition, no immune cells", "result": "did not observe any pyroptotic events"}, {"measurement": "CMTM4 gene expression fold change", "setting": "[3]; 24 hours vs DMSO", "result": "−1.84", "unit": "FC"}, {"measurement": "NEK2 gene expression fold change", "setting": "[3]; 24 hours vs DMSO", "result": "−2.21", "unit": "FC"}, {"measurement": "PPP1R1C gene expression fold change", "setting": "[3]; 24 hours vs DMSO", "result": 1.78, "unit": "FC"}, {"measurement": "downregulated genes in VEGFA-VEGFR2 signaling pathway", "setting": "[3]; 24 hours vs DMSO", "result": 29}, {"measurement": "differentially expressed genes post-treatment", "setting": "[3]; IC-50 concentration (1 μM), 24 hours, FC cutoff >1.5, <−1.5, p<0.05", "result": 340}, {"measurement": "CCL5/RANTES secretion", "setting": "[4]; 1 μM or 5 μM", "result": "downregulated post-treatment"}, {"measurement": "DcR3 secretion", "setting": "[4]; 1 μM or 5 μM", "result": "downregulated post-treatment"}, {"measurement": "Fas secretion", "setting": "[4]; 1 μM or 5 μM", "result": "downregulated post-treatment"}, {"measurement": "soluble PD-L1 (sPD-L1) secretion", "setting": "[4]; 1 μM or 5 μM", "result": "downregulated post-treatment"}, {"measurement": "GDF-15 secretion", "setting": "[4]; both cell lines, 1 μM and 5 μM", "result": "decreased secretion"}, {"measurement": "GM-CSF secretion", "setting": "[4]; both cell lines, 1 μM and 5 μM", "result": "decreased secretion"}, {"measurement": "VEGF secretion", "setting": "[4]; both cell lines, 1 μM and 5 μM", "result": "decreased secretion"}, {"measurement": "immune cell activation marker CD69 expression", "setting": "[5]", "result": "increase"}, {"measurement": "immune cell attractant CCL4 expression", "setting": "[5]", "result": "increase"}, {"measurement": "immunosuppressive marker CHI3L1 expression", "setting": "[5]", "result": "decrease"}]}]}
